Experimental data: patent publication US20110086759A1, “CHEMICAL COMPOUNDS” (SYNGENTA CROP PROTECTION, INC., priority 2007, published 2011)

Legend:
Type in all cases: in vivo
[1] = system: Alopecurus myosuroides (ALOMY); experiment: Pre-emergence biological efficacy, glasshouse pot test; details: 312 h
How it was run: (§1)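 Test compound, formulated in acetone/water (50:50) containing 0.5% Tween 20 and diluted into an aqueous spray, was applied at 1000 or 250 g/ha to pots sown one day earlier. Injury was rated after 13 days, 100 meaning total damage.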

[2] = system: Amaranthus retoflexus (AMARE); experiment: as above; details: Amaranthus retroflexus, 312 h
How it was run: as §1

[3] = system: Echinochloa crus-galli (ECHCG); experiment: as above; details: 312 h
How it was run: as §1

[4] = system: Ipomea hederaceae (IPOHE); experiment: as above; details: Ipomoea hederacea, 312 h
How it was run: as §1

[5] = system: Setaria faberi (SETFA); experiment: as above; details: 312 h
How it was run: as §1

[6] = system: Solanum nigrum (SOLNI); experiment: as above; details: 312 h
How it was run: as §1

[7] = system: Alopecurus myosuroides (ALOMY); experiment: Post-emergence biological efficacy, glasshouse pot test; details: 312 h
How it was run: (§2)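 Plants were sown in standard soil and grown 8 days in a glasshouse (24/16° C. day/night, 14 hours light, 65% humidity), then sprayed post-emergence at 1000 or 250 g/ha from acetone/water (50:50) with 0.5% Tween 20. Damage was scored visually after 13 days (0 = none, 100 = total).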

[8] = system: Amaranthus retoflexus (AMARE); experiment: as above; details: Amaranthus retroflexus, 312 h
How it was run: as §2

[9] = system: Echinochloa crus-galli (ECHCG); experiment: as above; details: 312 h
How it was run: as §2

[10] = system: Ipomea hederaceae (IPOHE); experiment: as above; details: Ipomoea hederacea, 312 h
How it was run: as §2

[11] = system: Setaria faberi (SETFA); experiment: as above; details: 312 h
How it was run: as §2

[12] = system: Solanum nigrum (SOLNI); experiment: as above; details: 312 h
How it was run: as §2

[13] = pre-emergence, rate 1,000 g/ha, evaluated after 13 days (100=total damage to plant; 0=no damage), read-out: Percentage damage caused to weed species, ALOMY
[14] = pre-emergence, rate 1,000 g/ha, evaluated after 13 days (100=total damage to plant; 0=no damage), read-out: Percentage damage caused to weed species, AMARE
[15] = pre-emergence, rate 1,000 g/ha, evaluated after 13 days (100=total damage to plant; 0=no damage), read-out: Percentage damage caused to weed species, ECHCG
[16] = pre-emergence, rate 1,000 g/ha, evaluated after 13 days (100=total damage to plant; 0=no damage), read-out: Percentage damage caused to weed species, IPOHE
[17] = pre-emergence, rate 1,000 g/ha, evaluated after 13 days (100=total damage to plant; 0=no damage), read-out: Percentage damage caused to weed species, SETFA
[18] = pre-emergence, rate 1,000 g/ha, evaluated after 13 days (100=total damage to plant; 0=no damage), read-out: Percentage damage caused to weed species, SOLNI
[19] = Rate 1,000 g/ha, post-emergence spray, evaluated after 13 days (100=total damage to plant; 0=no damage to plant), read-out: Percentage damage caused to weed species, post-emergence, ALOMY
[20] = Rate 1,000 g/ha, post-emergence spray, evaluated after 13 days (100=total damage to plant; 0=no damage to plant), read-out: Percentage damage caused to weed species, post-emergence, AMARE
[21] = Rate 1,000 g/ha, post-emergence spray, evaluated after 13 days (100=total damage to plant; 0=no damage to plant), read-out: Percentage damage caused to weed species, post-emergence, ECHCG
[22] = Rate 1,000 g/ha, post-emergence spray, evaluated after 13 days (100=total damage to plant; 0=no damage to plant), read-out: Percentage damage caused to weed species, post-emergence, IPOHE
[23] = Rate 1,000 g/ha, post-emergence spray, evaluated after 13 days (100=total damage to plant; 0=no damage to plant), read-out: Percentage damage caused to weed species, post-emergence, SETFA
[24] = Rate 1,000 g/ha, post-emergence spray, evaluated after 13 days (100=total damage to plant; 0=no damage to plant), read-out: Percentage damage caused to weed species, post-emergence, SOLNI

Compound | pest or weed control at 1000 g/ha [1, 13] [%] | pest or weed control at 1000 g/ha [2, 14] [%] | pest or weed control at 1000 g/ha [3, 15] [%] | pest or weed control at 1000 g/ha [4, 16] [%] | pest or weed control at 1000 g/ha [5, 17] [%] | pest or weed control at 1000 g/ha [6, 18] [%] | pest or weed control at 1000 g/ha [7, 19] [%] | pest or weed control at 1000 g/ha [8, 20] [%] | pest or weed control at 1000 g/ha [9, 21] [%] | pest or weed control at 1000 g/ha [10, 22] [%] | pest or weed control at 1000 g/ha [11, 23] [%] | pest or weed control at 1000 g/ha [12, 24] [%] | further results
COC(=O)c1nc(C2CC2)nc(NCc2ccc(Br)o2)c1Cl [Compound 4-129, 4-(5-bromofuran-2-ylmethylamino)-5-chloro-2-cyclopropyl-6-methoxycarbonyl-pyrimidine] |  |  |  |  |  |  |  |  |  |  |  |  | pest or weed control at 1000 g/ha ([1]; pre-emergence, 1,000 g/ha, evaluated after 13 days (100=total damage; 0=no damage), read-out: Percentage damage ALOMY): 30%; pest or weed control at 1000 g/ha ([2]; pre-emergence, 1,000 g/ha, evaluated after 13 days (100=total damage; 0=no damage), read-out: Percentage damage AMARE): 100%; pest or weed control at 1000 g/ha ([3]; pre-emergence, 1,000 g/ha, evaluated after 13 days (100=total damage; 0=no damage), read-out: Percentage damage ECHCG): 70%; pest or weed control at 1000 g/ha ([4]; pre-emergence, 1,000 g/ha, evaluated after 13 days (100=total damage; 0=no damage), read-out: Percentage damage IPOHE): 100%; pest or weed control at 1000 g/ha ([5]; pre-emergence, 1,000 g/ha, evaluated after 13 days (100=total damage; 0=no damage), read-out: Percentage damage SETFA): 40%; pest or weed control at 1000 g/ha ([6]; pre-emergence, 1,000 g/ha, evaluated after 13 days (100=total damage; 0=no damage), read-out: Percentage damage SOLNI): 100%; pest or weed control at 1000 g/ha ([7]; post-emergence, 1,000 g/ha, evaluated after 13 days (100=total damage; 0=no damage), read-out: Percentage damage caused to weed species, ALOMY): 40%; pest or weed control at 1000 g/ha ([8]; post-emergence, 1,000 g/ha, evaluated after 13 days (100=total damage; 0=no damage), read-out: Percentage damage caused to weed species, AMARE): 100%; pest or weed control at 1000 g/ha ([9]; post-emergence, 1,000 g/ha, evaluated after 13 days (100=total damage; 0=no damage), read-out: Percentage damage caused to weed species, ECHCG): 70%; pest or weed control at 1000 g/ha ([10]; post-emergence, 1,000 g/ha, evaluated after 13 days (100=total damage; 0=no damage), read-out: Percentage damage caused to weed species, IPOHE): 100%; pest or weed control at 1000 g/ha ([11]; post-emergence, 1,000 g/ha, evaluated after 13 days (100=total damage; 0=no damage), read-out: Percentage damage caused to weed species, SETFA): 90%; pest or weed control at 1000 g/ha ([12]; post-emergence, 1,000 g/ha, evaluated after 13 days (100=total damage; 0=no damage), read-out: Percentage damage caused to weed species, SOLNI): 90%
COC(=O)c1nc(C2CC2)nc(N(C)Cc2ccccc2[N+](=O)[O-])c1Cl [Compound 5-90, 5-Chloro-2-cyclopropyl-6-methoxycarbonyl-4-[N-methyl-N-(2-nitrophenylmethyl)-amino]pyrimidine] | 20 | 100 | 30 | 90 | 30 | 90 | 50 | 100 | 70 | 100 | 90 | 90 | 
COC(=O)c1nc(-c2ccc(Cl)c(OC)c2F)nc(NCC2CC2)c1Cl [Compound 112-43, 5-Chloro-2-(4-chloro-2-fluoro-3-methoxy-phenyl)-4-cyclo-propylmethylamino-6-methoxycarbonyl-pyrimidine] | 40 | 60 | 60 | 80 | 30 | 70 | 40 | 100 | 80 | 70 | 80 | 90 | 
COC(=O)c1nc(C2CC2)nc(N(C)CCc2ccccc2)c1Cl [Compound 5-221, 5-Chloro-2-cyclopropyl-6-methoxycarbonyl-4-[(N-methyl)-N-(2-phenylethyl)-amino]pyrimidine] | 0 | 30 | 0 | 40 | 0 | 30 | 10 | 100 | 30 | 100 | 40 | 80 | 
O=C(NCc1cccs1)c1nc(C2CC2)nc(NCc2cccs2)c1Cl [Compound 265-4, 5-Chloro-2-cyclopropyl-4-(thiophen-2-ylmethylamino)-6-(thiophen-2-yl-methylamino-carbonyl)-pyrimidine] | 0 | 20 | 0 | 0 | 0 | 0 | 20 | 50 | 20 | 50 | 20 | 50 | 
